# What was measured:
# HEK293 cells [1] = assay: HDR insertion of a 6-nt EcoRI sequence at SpCas9 RNP induced DSBs with ssDNA donor, repair events measured by NGS; type: cell-based
# Procedure: FIG. 1 depicts inhibition of NHEJ, MMEJ, and 53BP1 leads to high levels of HDR at SpCas9 induced DSBs. HEK293 cells were treated with Cas9 RNP (2 μM) targeting 5 different sites (FIG. 1A: AADACL3; FIG. 1B: ANKRD50; FIG. 1C: ABCD4: FIG. 1D: AR; FIG. 1E: AKAP6) in the genome alongside ssDNA donor template with or without Ubv-A protein (25 μM). Cells were then plated in media containing no DMSO, DMSO control, ART, V2, or ART+V2 for 24 hours before exchanging for fresh media (see Methods for concentrations). The graphs show the percent of each repair event under each condition measured by NGS with error bars indicating SD from three replicates. Likely MMEJ deletions are determined based on the presence of microhomology of two nucleotides or greater at the ends of the deletion.
# For HDR using ssDNA templates in HEK293 cells genome editing was mediated via IDT Alt-R Cas9 ribonucleoprotein, IDT Alt-R AsCas12a Ultra, or EURECA-V (a ErCas12a variant) (RNP) complexes delivered by Lonza nucleofection in concert with single-stranded oligodeoxynucleotide (ssODN) HDR repair templates. The specific repair event was the insertion of a 6-nt EcoRI sequence (5′-GAATTC-3′) at either the Cas9, AsCas12a, or ErCas12a cut site. The sgRNAs for Cas9 and crRNAs for AsCas12a corresponding to the protospacer sequences listed in Table 2 were ordered from IDT (Table 2). The HDR donor templates for Cas9 editing contain 40-nt homology arms (HA) flanking a 6 nt EcoR1 cut site insert. The HDR donor templates for AsCas12a were similar except for slightly different homology arm lengths (40 nt 5′ HA and 45 nt 3′ HA)^66. The HDR donor sequences listed in Table 3 were ordered from IDT as Alt-R HDR donor oligos (Table 3). The repair templates are homologous to the non-targeting strand of dsDNA, where targeting/non-targeting is defined with respect to the guide RNA sequence and the presence of the NGG/TTTV PAM sequence identifying the non-target strand. […]
# HEK293 cells [2] = assay: CAR knock-in at the TRAC locus with dsDNA Alt-R HDR donor block, PCR and Fragment Analyzer; type: cell-based; details: enhancer used alone; ART558 10 μM, V2 1 μM, Ubv-A protein 25 μM, Ubv-A mRNA 25 nM; Cas9 RNP or Cas9 mRNA
# Procedure: FIG. 3A depicts percent CAR knock-in (KI) at the TRAC locus in HEK293 cells treated with 1 μg dsDNA Alt-R HDR donor block, 2 μM Cas9 RNP, and either 25 μM tagless Ubv-A protein or 25 nM Ubv-A mRNA or no Ubv-A and incubated in media containing DMSO (no enhancer), MMEJ inhibitor ART558 (ART, 10 μM), NHEJ inhibitor Alt-R HDR enhancer V2 (V2, 1 μM), or both ART558 and V2. Percent KI was calculated using PCR followed by analysis using an Agilent Fragment Analyzer and data processing using PROSize 3.0 software to calculate the relative molar concentrations between wild-type and edited products. Error bars indicate SD, n=3. […]
# HEK293 cells were harvested and resuspended in SF Cell Line Nucleofector Solution (Lonza, V4SC-2096) at a concentration of approximately 16,500 cells/μl and 18 μl of this cell suspension was used for each nucleofection. […] To quantify knock-in percentages, genomic DNA flanking the sgRNA target site was amplified by PCR, PCR products were separated on a Fragment Analyzer (Agilent Technologies), and the percentage of edited and unedited alleles was calculated using PROSize 3.0 software.
# Recent publications have shown that inhibition of MMEJ through inhibition of DNA polymerase theta using small molecule inhibitors increases the rate of HDR and reduces undesired edits^16,27. […] Genomic DNA was isolated approximately 48 hours after delivery and editing was analyzed by NGS. […]
compound,measurement,setting,value
"Cc1cccc(N(C)C(=O)[C@@H]2[C@H](O)CCN2c2nc(C)cc(C(F)(F)F)c2C#N)c1 [ART558, reference compound]",HDR,"HEK293 cells [1]; 10 μM ART558 alone in media 24 hours, 2 μM Cas9 RNP, 2 μM ssDNA, 5 sites",minimal boost in HDR
same,"HDR, site with largest increase","HEK293 cells [1]; 10 μM ART558 alone, AKAP6 site, highest level of likely MMEJ repair events in media only condition",AKAP6
same,rates of HDR and likely MMEJ events,"HEK293 cells [1]; 10 μM ART558 in combination with 1 μM V2, compared with ART558 plus Ubv-A",the effect is less pronounced
same,HDR (CAR knock-in),HEK293 cells [2],minimal effect on HDR

# — patent publication US20250236892A1, “Inhibition of NHEJ, MMEJ, and 53BP1 Promotes High Levels of HDR” (Integrated DNA Technologies, Inc., priority 2024, published 2025)
